Laboratory results taken from patent publication US8466678B2, “Method and apparatus for enhanced in vivo MRI imaging” (Battelle Memorial Institute, priority 2009, dated 2013).

Experiments:
lungs of live rats = assay: Proton MRI (S0/T2 bivariate analysis) of lungs after intratracheal bleomycin instillation; format: in vivo, Sprague-Dawley rats
Procedure: In these experiments, three groups of Sprague-Dawley rats (n=5) were instilled intratracheally with bleomycin (2.5 U/kg or 3.5 U/kg) in saline or with saline only. Rats were imaged at 2.0 T using a multi-slice Carr-Purcell-Meilboom-Gill (CPMG) sequence with 6 ms echo spacing. Signal intensity (S0) and T2 were calculated on a pixel-by-pixel basis using images collected before dosing and 1, 2, 4, and 7 weeks after. At each time point, data from dosed animals were compared to controls, and bivariate statistical analysis was employed to classify image pixels containing abnormal tissue. At week 7, pulmonary function tests were performed, then all rats were sacrificed, left lungs were formalin fixed and tri-chrome stained for histological analysis of collagen content, and right lungs were used to measure water and hydroxyproline (collagen) content.
Animal handling and treatment procedures followed a protocol approved by the Institutional Animal Care and Use Committee. A total of 18 male Sprague-Dawley rats weighing 196±8 g were used. […]
MRI Analysis. Images were reconstructed using a standard 2D Fourier transform, then they were read into Mathematica 6.0 (Wolfgram Research, Champaign, Ill.) for further analysis. […] The mean background noise was measured from the first image of each stack. […]
Following segmentation, data for each rat at each time point were written to a columnar data file that contained S0, T2, slice number, and the corresponding pixel coordinates. […] A scatter plot of T2 (y-axis) vs. S0 (x-axis) was then generated to show the clustering of the data and the relationship between the measured parameters (for example, see FIG. 2A). Using a Mathematica script and bivariate statistical analysis, an ellipsoid was calculated that encircled ˜95% of the data points that were heretofore defined as “normal” lung with 95% confidence.
Each dosed animal was compared to the control group at the same time point, and data points within the ellipsoid were deleted as shown in FIG. 4B. The percentage of total pixels that were “abnormal” was calculated for each animal at each time point. […]

[1] = Body weight and animal welfare after bleomycin instillation; format: in vivo, Sprague-Dawley rats
Excerpt: Animal handling and treatment procedures followed a protocol approved by the Institutional Animal Care and Use Committee. A total of 18 male Sprague-Dawley rats weighing 196±8 g were used. They were divided into three groups of n=6: control, low-dose (LD), and high-dose (HD). A single animal per dose group died immediately after dosing. Therefore, each group was left with n=5. No additional unanticipated mortality occurred for the duration of the experiment.
In brief, rats were first weighed then injected subcutaneously with 0.02 mL/kg body weight (BW) glycopyrrolate to inhibit oral secretions and facilitate insertion of an endotracheal tube. After 10-15 minutes, animals were anesthetized with 3-4% isoflurane in oxygen-enriched air (30% O2, 70% N2).
Other than the initial weight loss, no other outward signs of distress were observed.

bleomycin sulfate
response of the LD group (lungs of live rats; 2.5 U/kg BW intratracheal (LD), after the first two weeks of the study): very mild response
percentage of "abnormal" pixels vs control rats (lungs of live rats; 2.5 U/kg BW intratracheal (LD), by week 4): essentially indistinguishable from the control rats
response (fraction of "abnormal" pixels) compared with LD rats (lungs of live rats; 3.5 U/kg BW intratracheal (HD), throughout the experiment (7 weeks)): stronger response
breathing under anesthesia ([1]; 3.5 U/kg BW (HD), weeks 1, 2 and 4): struggle with breathing under anesthesia
body weight change ([1]; both dose groups (2.5 and 3.5 U/kg BW), first week): lost a significant amount of weight
